Reference: patent US9567318B2, “Substituted pyrimidine compounds and uses thereof” (Memorial Sloan-Kettering Cancer Center, priority 2009, dated 2017)

Experiments:
[1] = tested on: MDA-MB-468, SKBr3, LNCaP, MOLM-13, Kasumi-1, OCI-Ly7 and HuH7 cells; test: Growth inhibition in a panel of cancer cells; format: cell-based, human; conditions: growth over 72 h
Protocol: Tested were MDA-MB-468 triple-negative breast cancer cells, SKBr3 HER2+breast cancer cells, LNCaP mAR+prostate cancer cells, MOLM-13 and Kasumi-1 acute myeloid leukemia cells, OCI-Ly7 diffuse large B-cell lymphoma cells and HuH7 hepatocellular carcinoma cells. […] In cancer cells, half growth inhibitory concentrations ([…]) recorded for YK5 were in high agreement with its potency to degrade Hsp90 onco-clients.
Growth Inhibition Assay. Antiproliferative effects of inhibitors were evaluated using the dye Alamar blue. This reagent offers a rapid objective measure of cell viability in cell culture, and it uses the indicator dye resazurin to measure the metabolic capacity of cells, an indicator of cell viability. Briefly, cells were plated on Costar 96-well plates. For attached cells (such as SKBr3, MDA-MB-468, LNCaP, MRCS), 8,000 cells/well were used. For suspension cells (such as MOLM-13, Kasumi-1, OCI-Ly7, PBL), 20,000 cells/well were plated. Cells were allowed to incubate for 24 h at 37° C. before drug treatment. Drugs were added in triplicates at the indicated concentrations, and the plate was incubated for 72 h. Alamar Blue (440 μM) was added, and the plate read 6 h later using the Analyst GT (Fluorescence intensity mode, excitation 530 nm, emission 580 nm, with 560=dichroic mirror). Results were analyzed using the Softmax Pro software. The percentage cell growth inhibition was calculated by comparing fluorescence readings obtained from treated versus control cells, accounting for initial cell population (time zero).

recombinant human Hsp70 = molecular target: T1, recombinant human Hsp70 (Homo sapiens, UniProt P0DMV8); test: Hsp70 competition assay using YK55 beads, recombinant protein; format: binding; conditions: compared with MRC-5 Hsp70s
T1 construct: purchased Stressgen
Protocol: FIG. 14. YK5 has a higher affinity for tumor Hsp70s and selectively kills cancer cells. (a-c) Cells were treated with the indicated concentrations of inhibitors for the times presented, and metabolically viable cells by Alamar blue uptake as described in Methods (a). Molecular markers of apoptosis (PARP and caspase-3 cleavage) were analyzed in cells treated for 24 h with indicated concentrations of inhibitors, by western blotting (b, c). Morphology of cells treated for 24 h with vehicle or the indicated inhibitors was analyzed by light microscopy (c). (d) Extracts (500 μg) were incubated overnight with beads containing D-biotin (75 μM) or the indicated concentrations of YK55 added to 50 μl streptavidin beads. HS=heat shocked. (e) SKBr3 (200 μg) and MRC-5 (400 μg) extracts and recombinant human Hsp70 (2 μg) were incubated for 3 h with the indicated concentrations with YK5, followed by precipitation of Hsp70 complexes on YK55-beads (50 μM YK55 added to 50 μl streptavidin beads). Data obtained from three independent experiments were graphed (right). Points, mean; bars, s.d.
In a second experiment, the ability of soluble YK5 to compete YK55-binding to normal and cancer cell Hsp70 species were tested (FIG. 14e). […] Interaction of YK5 was even weaker with recombinant human Hsp70 (FIG. 14e).
Hsp70 Competition Assay Using the YK55 Beads. […]

[2] = tested on: PBLs, CCD18Co and MRC-5 normal cells; test: Cytotoxicity in normal cells; format: cell-based
Protocol: FIG. 14. YK5 has a higher affinity for tumor Hsp70s and selectively kills cancer cells. (a-c) Cells were treated with the indicated concentrations of inhibitors for the times presented, and metabolically viable cells by Alamar blue uptake as described in Methods (a). Molecular markers of apoptosis (PARP and caspase-3 cleavage) were analyzed in cells treated for 24 h with indicated concentrations of inhibitors, by western blotting (b, c). Morphology of cells treated for 24 h with vehicle or the indicated inhibitors was analyzed by light microscopy (c). […]
Because Hsp70 assists in house-keeping functions of normal cells, such as folding of newly synthesized polypeptides, refolding of misfolded proteins, and translocation of proteins through biological membranes, it remains unclear whether pharmacologic interventions which target both Hsp70 and Hsc70 isoforms, such as YK5, are non-toxic to these cells. To address this matter, the cytotoxic effect of YK5 in a panel of normal cells was evaluated, namely peripheral blood leukocytes (PBLs) obtained from healthy blood donors, and cultured normal fibroblasts, such as the colon cells CCD18Co and the lung MRC-5 (FIG. 14a-c). […]
Growth Inhibition Assay. Antiproliferative effects of inhibitors were evaluated using the dye Alamar blue. […]

T1 sequence (P0DMV8 whole entry): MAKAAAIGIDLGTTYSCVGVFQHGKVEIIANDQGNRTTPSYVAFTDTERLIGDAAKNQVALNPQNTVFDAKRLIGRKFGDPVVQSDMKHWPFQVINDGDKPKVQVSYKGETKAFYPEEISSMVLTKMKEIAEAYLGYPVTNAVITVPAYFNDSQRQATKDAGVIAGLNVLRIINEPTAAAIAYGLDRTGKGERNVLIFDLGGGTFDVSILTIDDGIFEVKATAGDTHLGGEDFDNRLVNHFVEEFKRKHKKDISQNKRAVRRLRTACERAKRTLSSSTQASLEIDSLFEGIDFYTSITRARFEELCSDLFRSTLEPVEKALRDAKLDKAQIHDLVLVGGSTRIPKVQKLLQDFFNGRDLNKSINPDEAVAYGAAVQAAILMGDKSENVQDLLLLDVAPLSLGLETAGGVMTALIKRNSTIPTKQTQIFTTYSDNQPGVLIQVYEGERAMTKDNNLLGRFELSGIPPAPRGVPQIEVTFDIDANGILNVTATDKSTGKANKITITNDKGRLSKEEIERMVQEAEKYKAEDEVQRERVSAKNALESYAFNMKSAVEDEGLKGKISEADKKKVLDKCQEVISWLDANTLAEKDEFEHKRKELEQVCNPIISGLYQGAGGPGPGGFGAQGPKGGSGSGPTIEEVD

Question: How did the “growth of all tested cancer cells” value [1] turn out when `C=CC(=O)Nc1cc(N)nc(Sc2c(OC)nc(N3CCN(C)CC3)nc2OC)n1` [YK5, N-(6-amino-2-(4,6-dimethoxy-2-(4-methylpiperazin-1-yl)pyrimidin-5-ylthio)pyrimidin-4-yl)acrylamide] was run?
Answer: inhibited the growth of all tested cancer cells

Question: What about the “interaction with recombinant human Hsp70” value (recombinant human Hsp70) of the same compound?
Answer: even weaker

Question: And the “cell death in normal cells” value [2]?
Answer: minimal
